Test system: HCT-116 colorectal cancer cells
Experiment: Cell viability (alamarBlue) assay, single agents and combinations, in HCT-116 colorectal cancer cells
Format: cell-based
Conditions: Homo sapiens; HCT-116 cells exposed to drug for 72 hr; 1.5-fold serial dilution; four parameter logistic fit; read-out: half maximal inhibitory concentration (IC50), cell viability
Description: Human HCT-116 colorectal cancer cells (CRC) were purchased from the American Type Culture Collection (Manassas, Va.) and grown in McCoy's 5a media (Sigma), following ATCC recommendations, in the presence of fetal bovine serum (10%), 2 mM L-glutamine and antibiotics (100 IU/ml penicillin and 100 μg/ml streptomycin, Sigma). Cells were maintained at 37° C., 5% CO2 atmosphere.
Cell viability was measured using the alamarBlue assay (Invitrogen). In brief, cells were plated in 96-well plates in triplicate at 5K cells per well and incubated at 37° C., 5% CO2 atmosphere for 24 hr prior to the addition of drug or vehicle (0.3% DMSO) to the culture medium. After 72 hr, 10 μl/well alamarBlue was added to the wells and incubated for an additional 3 hr at 37° C., 5% CO2 atmosphere. Fluorescence (560EX/590EM […]) was measured with a SpectraMax microplate reader (Molecular Devices) and the resulting data were used to calculate cell viability, normalized to vehicle control. […]
Combinations between ganetespib and irinotecan were then performed in HCT-116 cells concurrently based on the IC50 for each agent in matrix format with 54 combination pairs for each drug. The combined drugs, as well as each drug alone, were incubated with the cells for 3 days and the surviving fraction of cells relative to control was determined using the alamarBlue assay.

| IC50 | SMILES |
| --- | --- |
| ~32 nM | CC(C)c1cc(-c2nnc(O)n2-c2ccc3c(ccn3C)c2)c(O)cc1O [ganetespib, 3-(2,4-DIHYDROXY-5- ISOPROPYL-PHENYL)-4-(1- METHYL-INDOL-5-YL)-5- HYDROXY-[1,2,4] TRIAZOLE] |
| ~2300 nM | CCc1c2c(nc3ccc(OC(=O)N4CCC(N5CCCCC5)CC4)cc13)-c1cc3c(c(=O)n1C2)COC(=O)[C@]3(O)CC [irinotecan] |
